The values below are quoted from earlier work in paper PMC8198792, “Prediction of Anticancer Peptides with High Efficacy and Low Toxicity by Hybrid Model Based on 3D Structure of Peptides” (International Journal of Molecular Sciences, 2021).

Data set [1] relates to erythrocytes. The conditions noted are these: cited from earlier work. An excerpt:
Supplement ijms-22-05630-s001.zip/Hemloytic Peptides(seguence).xlsx, sheet "HD1" | column: Activity || Supplement ijms-22-05630-s001.zip/Hemloytic Peptides(seguence).xlsx, sheet "HD2" | column: Activity || Supplement ijms-22-05630-s001.zip/Hemloytic Peptides(seguence).xlsx, sheet "HD3" | column: Activity

For data set [2], the system named is cancer cell lines. Further details: method as in 6 sources, ref CancerPPD [45] and SATPdb ||| ref CancerPPD/SATPdb ||| ref CancerPPD, SATPdb, Swissprot (PDB) ||| ref CancerPPD/SATPdb/Swissprot(PDB) ||| ref CancerPPD / SATPdb ||| ... The conditions noted are these: cited from earlier work. An excerpt: Supplement ijms-22-05630-s001.zip/ACPs(seguence).xlsx, sheet "D1" | column: Activity || Supplement ijms-22-05630-s001.zip/ACPs(seguence).xlsx, sheet "D2" | column: Activity || Supplement ijms-22-05630-s001.zip/ACPs(seguence).xlsx, sheet "D3" | column: Activity || (+ 2 further places)

Where [3] appears, read: ACPs dataset D3 (sheet "D3"), label 1 = ACP, 0 = non-ACP, ref CancerPPD/SATPdb.
Setting [4] is: ACPs dataset D4 (sheet "D4"), label 1 = ACP, 0 = non-ACP, ref CancerPPD / SATPdb.
Setting [5] is: ACPs dataset D5, sheet "D5", label 1 = ACP, 0 = non-ACP, ref CancerPPD [45] and SATPdb.
The mark [6] stands for this setting: ACPs dataset D1, label 1 = ACP, 0 = non-ACP (non-anticancer AMPs from SATPdb), ref CancerPPD/SATPdb.
The mark [7] stands for this setting: ACPs dataset D4 (sheet "D4"), label 1 = ACP (CancerPPD ID), 0 = non-ACP (non-anticancer AMP, SATPdb ID), ref CancerPPD [45] and SATPdb.
[8] abbreviates: hemolytic peptides dataset HD3, 1 = hemolytic (positive set), 0 = non-hemolytic (negative set), labels taken from databases, ref Hemolytik/SATPdb.
[9] abbreviates: natural hemolytic peptide dataset HD1, label collected from databases, ref Hemolytik [49], SATPdb [34].
Where [10] appears, read: Hemolytic peptides dataset HD2, label 1 = hemolytic, 0 = non-hemolytic, ref Hemolytik/SATPdb.
Where [11] appears, read: ACPs dataset D3 (supplement sheet "D3"), 1 = ACP, 0 = non-ACP, ref CancerPPD [45] and SATPdb.
[12] abbreviates: ACPs dataset D1, 1 = ACP (positive), 0 = non-ACP (negative), label taken from databases, ref CancerPPD [45] and SATPdb.

Read-outs that look alike come from different tables or passages of the source.

As to ILPFKFPFPFRR [satpdb12286], the Activity in data set [1] was 1; in data set [2] (setting [3]), 0; in data set [2] (setting [4]) it was 0; in data set [2] (setting [5]), 0.

On to VKLkVyPLKVKLyP [satpdb13685], for which the Activity in data set [1] is recorded as 1; in data set [2] (setting [3]) it was 0; in data set [2] (setting [4]), 0; in data set [2] (setting [5]), 0.

Take “LLLFLLKKRKKRKY [satpdb12213, hemolytic peptide, dataset HD1]”: the Activity is on record as 1 in data set [1], 0 in data set [2] (setting [6]) and 0 in data set [2] (setting [7]). Moreover, in data set [1], the “Activity (dataset HD1, hemolytic 1 / non-hemolytic 0)” value is reported as 1.

For “CGESCVWIPCTITALAGCKCKSKVCYNSIP [satpdb10149, hemolytic peptide, dataset HD1]”, the Activity in data set [1] (setting [8]) is given as 1; in data set [2] (setting [6]), 0; in data set [2] (setting [7]) it was 0. In data set [1] (setting [9]), the “Activity (dataset HD1, hemolytic 1 / non-hemolytic 0)” value was 1.

Consider KKLFKKiLKYL [satpdb14620], for which the Activity in data set [1], in data set [2] (setting [3]), in data set [2] (setting [4]) and in data set [2] (setting [5]) was 0 each time.

Take FLPLIGAVLSGIL [satpdb13723]: the Activity is given as 1 in data set [1], 0 in data set [2] (setting [3]), 0 in data set [2] (setting [4]) and 0 in data set [2] (setting [5]).

For “RFGRFLRKIRRFRPKVTITIQGSARFG [satpdb11815, hemolytic peptide, dataset HD1]”, the Activity in data set [1] was 1; in data set [2] (setting [6]), 0; in data set [2] (setting [7]), 0. Moreover, the “Activity (dataset HD1, hemolytic 1 / non-hemolytic 0)” value in data set [1] was 1.

As for GLGKFLHSAKRFGKAFVGEAMNS [satpdb13009], the Activity is 1 in data set [1], 0 in data set [2] (setting [3]), 0 in data set [2] (setting [4]) and 0 in data set [2] (setting [5]).

For “FIGAIARLLSKIF [satpdb13222, hemolytic peptide, dataset HD1]”, the results for the Activity in data set [1] (setting [8]), in data set [2] (setting [6]) and in data set [2] (setting [4]) were 1, 0 and 0, respectively. In addition, the “Activity (dataset HD1, hemolytic 1 / non-hemolytic 0)” value in data set [1] (setting [9]) is reported as 1.

Consider “VCGETCFGGTCNTPGCSCTWPICTRDGLP [satpdb10452, hemolytic peptide, dataset HD1]”, for which the Activity in data set [1] (setting [8]) is 1; in data set [2] (setting [6]), 0; in data set [2] (setting [7]), 0. Moreover, the “Activity (dataset HD1, hemolytic 1 / non-hemolytic 0)” value in data set [1] (setting [9]) was 1.

As for KWKKLLKKPLKLLKKLLK [satpdb12290], the Activity in data set [1] is listed as 1; in data set [2] (setting [3]), 0; in data set [2] (setting [4]) it was 0; in data set [2] (setting [5]) it was 0.

Regarding GIGKFLHTLKTFGKKWVGEIMNS [satpdb13533], the Activity in data set [1] is given as 1; in data set [2] (setting [3]), 0; in data set [2] (setting [4]), 0; in data set [2] (setting [5]), 0.

In the case of FQWQRNIRKVR [satpdb14534], the Activity in data set [1], in data set [2] (setting [3]), in data set [2] (setting [4]) and in data set [2] (setting [5]) was 0 in each case.

In the case of “GWLDVAKKIGKAAFNVAKNFLFNKAVNFAAKGIKKAVDLWG [satpdb12864, hemolytic peptide, dataset HD1]”, the Activity in data set [1] (setting [8]) was 1; in data set [2] (setting [6]), 0; in data set [2] (setting [4]), 0. Besides, the “Activity (dataset HD1, hemolytic 1 / non-hemolytic 0)” value in data set [1] (setting [9]) is 1.

In the case of “VFQFLGKIIHHVGNFVHGFSHVF [satpdb12167, hemolytic peptide, dataset HD1]”, the results for the Activity in data set [1] (setting [8]), in data set [2] (setting [6]) and in data set [2] (setting [7]) were 1, 0 and 0, respectively. Besides, in data set [1] (setting [9]), the “Activity (dataset HD1, hemolytic 1 / non-hemolytic 0)” value was 1.

Turning to KKKLLLLLLLLLKKK [satpdb10761], the Activity in data set [1] (setting [10]) was 1; in data set [1] (setting [8]), 1; in data set [2] (setting [11]), 0; in data set [2] (setting [4]) it was 0; in data set [2] (setting [5]) it was 0.

On to GFLSILKKVLAKVMAHMK [satpdb13478], for which the Activity in data set [1] (setting [10]) is given as 1; in data set [1] (setting [8]), 1; in data set [2] (setting [3]), 0; in data set [2] (setting [4]), 0; in data set [2] (setting [5]), 0.

Consider “KEKLKLKCKAPKCYNDKLACT [satpdb13157, non-hemolytic peptide, dataset HD1]”, for which the Activity in data set [1], in data set [2] (setting [6]) and in data set [2] (setting [4]) was 0 in each case. The “Activity (dataset HD1, hemolytic 1 / non-hemolytic 0)” value in data set [1] is recorded as 0.

On to “TSRCIFYRRKKCS [satpdb13333, hemolytic peptide, dataset HD1]”, for which the Activity in data set [1] is on record as 1; in data set [2] (setting [6]), 0; in data set [2] (setting [4]), 0. The “Activity (dataset HD1, hemolytic 1 / non-hemolytic 0)” value in data set [1] is on record as 1.

Take GFMKYIKPLIPHAVKAIKKLI [satpdb12244]: the Activity in data set [1] was 1; in data set [2] (setting [3]) it was 0; in data set [2] (setting [4]) it was 0; in data set [2] (setting [5]), 0.

As to FVPWFSKFLGRIL [satpdb13384], the Activity is reported as 1 in data set [1] (setting [10]); 1 in data set [1] (setting [8]); 0 in data set [2] (setting [3]); 0 in data set [2] (setting [4]); 0 in data set [2] (setting [5]).

For ILPLKLPLLPWRR [satpdb11013], the Activity in data set [1] (setting [10]), in data set [1] (setting [8]), in data set [2] (setting [11]), in data set [2] (setting [4]) and in data set [2] (setting [5]) was 0 in each case.

For “RWSVYAYVRVRGVLVRYRRSW [satpdb10414, hemolytic peptide, dataset HD1]”, the Activity is given as 1 in data set [1], 0 in data set [2] (setting [12]) and 0 in data set [2] (setting [7]). In addition, the “Activity (dataset HD1, hemolytic 1 / non-hemolytic 0)” value in data set [1] is 1.

Regarding RRWPWWPWKWPLI [satpdb10003], the Activity in data set [1] is listed as 1; in data set [2] (setting [11]), 0; in data set [2] (setting [4]), 0; in data set [2] (setting [5]) it was 0.

LKKLLKWLKKL [satpdb13099]: the Activity is 1 in data set [1], 0 in data set [2] (setting [3]), 0 in data set [2] (setting [4]) and 0 in data set [2] (setting [5]).

“FLPILAGLAAKIVPKLFCLATKKC [satpdb11778, hemolytic peptide, dataset HD1]”: the Activity is 1 in data set [1], 0 in data set [2] (setting [6]) and 0 in data set [2] (setting [7]). Besides, the “Activity (dataset HD1, hemolytic 1 / non-hemolytic 0)” value in data set [1] is 1.

Regarding VSWKKSLGKIIKVVK [satpdb13183], the Activity is reported as 1 in data set [1] (setting [10]); 1 in data set [1] (setting [8]); 0 in data set [2] (setting [3]); 0 in data set [2] (setting [4]); 0 in data set [2] (setting [5]).

With “AKKVFKRLGIGAVLWVLTWG [satpdb10183, hemolytic peptide, dataset HD1]”, the Activity is given as 1 in data set [1] (setting [8]), 0 in data set [2] (setting [12]) and 0 in data set [2] (setting [7]). The “Activity (dataset HD1, hemolytic 1 / non-hemolytic 0)” value in data set [1] (setting [9]) is listed as 1.

yPVKLyPVKL [satpdb11316]: the Activity in data set [1] (setting [10]) is given as 1; in data set [1] (setting [8]) it was 1; in data set [2] (setting [11]), 0; in data set [2] (setting [4]), 0; in data set [2] (setting [5]), 0.

LKWLLKWLL [satpdb12315]: the Activity in data set [1] (setting [10]) is recorded as 1; in data set [1] (setting [8]) it was 1; in data set [2] (setting [3]) it was 0; in data set [2] (setting [4]), 0; in data set [2] (setting [5]) it was 0.

With “FSPQMLQDIIEKKTKIL [satpdb13152, non-hemolytic peptide, dataset HD1]”, the Activity in data set [1], in data set [2] (setting [6]) and in data set [2] (setting [4]) was 0 each time. In addition, the “Activity (dataset HD1, hemolytic 1 / non-hemolytic 0)” value in data set [1] is recorded as 0.

Consider KfKLKQ [satpdb10387], for which the Activity in data set [1] (setting [10]), in data set [1] (setting [8]), in data set [2] (setting [11]), in data set [2] (setting [4]) and in data set [2] (setting [5]) was 0 each time.

Regarding LLIILKKKWKKQAKAKSK [satpdb13450], the Activity in data set [1] (setting [10]) was 1; in data set [1] (setting [8]), 1; in data set [2] (setting [3]) it was 0; in data set [2] (setting [4]) it was 0; in data set [2] (setting [5]) it was 0.

With KWFRVYRGIYRRR [satpdb13764], the Activity in data set [1], in data set [2] (setting [3]), in data set [2] (setting [4]) and in data set [2] (setting [5]) was 0 throughout.

In the case of VKLGVyPLKVKLyP [satpdb12769], the Activity in data set [1] is 1; in data set [2] (setting [3]), 0; in data set [2] (setting [4]) it was 0; in data set [2] (setting [5]), 0.
